This passage reports EC50 and IC50 results from patent US10882856B2 (BeiGene, Ltd., priority 2017, dated 2021).

Structures are written as SMILES. Like-named read-outs stand apart in the source and are kept apart here.

The target of assay [1] is T1, IDO1 (Homo sapiens, UniProt P14902). The assay is described as follows: Hela cell-based IDO1 assay. The following applies: Hela cells. A digest of the protocol:
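Kynurenine was measured at 480 nm in trichloroacetic acid-deproteinised supernatant after adding 2% 4-(dimethylamino)benzaldehyde. This supernatant came from HeLa cells seeded at 8000 per well in 96-well plates in phenol red-free DMEM with 10% FBS and, from 4 hours after seeding, exposed for 48 hours at 37 °C, 5% CO2 to DMSO-diluted compound dilutions, IFN-γ (final 100 ng/mL) and 0.4 mM L-Trp. The resulting data were fitted with a four-parameter logistic model in XLfit. Potency was taken from those fits.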

Assay [2] concerns the target T2, cellular TDO2 in HEK293-TDO2 cells (Homo sapiens, UniProt P48775).
T2 construct: expressed in transfected cells; host or cells: HEK293 (ATCC), stably transfected
Briefly: 293-TDO2 cell-based assay (Kyn colorimetric). As to conditions: 48 hours of incubation. Here is the method: The inhibitory activity of TDO2 inhibitors is determined by using a colorimetric reaction to measure Kyn generated from L-Trp (L-Tryptophon) oxidation by cellular TDO2 in HEK293-TDO2 cells stably transfected with a plasmid expression of Tryptophan 2,3-dioxygenase (for short, 293-TDO2).
HEK293 cells were obtained from the American Type Culture Collection and 293-TDO2 were recovered in 10% FBS-containing phenol red-free DMEM medium. Cells were plated onto a 96-well plate (100 μl/well) at 10000 cells per well and kept at 37° C. in a humidified incubator supplied with 5% CO2. 4 hours later, Compounds at different concentrations diluted in dimethylsulfoxide (DMSO) were added to plate. Cells were kept at 37° C. in a humidified incubator supplied with 5% CO2. After 48 hours of incubation, 100 μl supernatant from each well was removed to a new plate. The protein in the medium was precipitated with the addition of 8 μl 6N trichloroacetic acid. The plate was incubated at 60° C. for 30 minutes and then centrifugation at 2500 rpm for 10 minutes to remove sediments. 80 μl supernatants were carefully removed to a new clean plate and added with an equal volume of 2% 4-(Dimethylamino) benzaldehyde (D2004, sigma) dissolved in glacial acetic acid. The absorbance at 480 nm wavelength derived from Kyn was measured using a PHERAstar FS plate reader (BMG LABTECH). The IC50 for each compound was derived from fitting the dose-response data to the four-parameter logistic model by using XLfit software (IDBS).

Assay [3] concerns the target T1, IDO1. The assay is described as follows: IDO1 enzymatic assay. It counts as biochemical. Also noted: His tag (N); made in house; host or cells: E. coli. The procedure, abridged:
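Assays were run in 50 mM potassium phosphate pH 7.5 with 0.1% BSA for 1.5 hours at 24 °C. Each contained 50 nM E. coli-purified, N-terminally His-tagged IDO1, compound, 1.3 mM D-tryptophan, 5 mM L-ascorbic acid, methylene blue and 0.4 mg/mL catalase. IC50 was calculated from remaining enzyme activity across a rising compound series, with activity taken as the slope of N'-formylkynurenine formation read continuously at 321 nm for 1 hour.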

T1 sequence (P14902 whole entry): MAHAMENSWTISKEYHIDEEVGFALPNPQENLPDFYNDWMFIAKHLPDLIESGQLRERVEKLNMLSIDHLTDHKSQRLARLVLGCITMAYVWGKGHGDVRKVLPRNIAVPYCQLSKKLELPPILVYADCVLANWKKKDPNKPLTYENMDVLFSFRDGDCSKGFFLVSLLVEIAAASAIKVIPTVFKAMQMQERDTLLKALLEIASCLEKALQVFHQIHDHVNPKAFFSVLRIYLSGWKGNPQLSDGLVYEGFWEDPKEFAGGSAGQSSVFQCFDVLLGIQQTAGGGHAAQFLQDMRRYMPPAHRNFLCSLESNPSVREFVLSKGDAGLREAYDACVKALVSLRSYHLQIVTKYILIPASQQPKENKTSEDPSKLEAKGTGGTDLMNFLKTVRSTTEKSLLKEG
T2 sequence (P48775 whole entry): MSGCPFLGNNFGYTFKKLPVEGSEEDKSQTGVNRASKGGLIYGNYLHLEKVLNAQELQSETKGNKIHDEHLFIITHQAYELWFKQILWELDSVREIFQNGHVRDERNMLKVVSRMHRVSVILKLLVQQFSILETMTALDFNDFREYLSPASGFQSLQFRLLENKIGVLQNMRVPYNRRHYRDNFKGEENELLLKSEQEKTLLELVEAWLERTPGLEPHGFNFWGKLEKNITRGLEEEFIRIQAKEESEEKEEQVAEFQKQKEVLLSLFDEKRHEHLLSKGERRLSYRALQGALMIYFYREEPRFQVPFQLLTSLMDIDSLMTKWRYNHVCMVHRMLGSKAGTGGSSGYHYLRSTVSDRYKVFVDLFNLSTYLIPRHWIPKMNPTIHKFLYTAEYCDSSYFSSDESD

Usually EC50 stands for the midpoint of the concentration-response curve. Lower therefore signals a more potent agent. The IC50 is the concentration at which inhibition is half-maximal. With `O[C@H](c1c(C2CC2)ccc2cncn12)[C@H]1CC[C@H](c2ccnc3ccc(F)cc32)CC1` (single isomer, unassigned) [Example D150a], the concentration for a half-maximal effect (EC50) was 18 nM at IDO1 [1] and above 10000 nM in assay [2]. Moreover, on IDO1 [3] (read-out: Enzyme IC50 IDO1), the IC50 is 16 nM.

`OC(c1c(C2CC2)ccc2cncn12)[C@H]1CC[C@H](c2ccc(F)cc2Cl)CC1` (single isomer, unassigned) [Example D130b]: the 50% effective concentration (EC50) on IDO1 [1] was 9370 nM; in assay [2] it was above 10000 nM. For the same compound, the IC50 on IDO1 [3] (read-out: Enzyme IC50 IDO1) was above 10000 nM.

In the case of `OC(c1c(C2CC2)ccc2cncn12)[C@H]1CC[C@H](c2ccc(C(F)(F)F)nc2)CC1` (single isomer, unassigned) [Example D107b], the concentration giving a half-maximal response (EC50) (on IDO1 [1]; in assay [2]) was above 10000 nM in each case. On IDO1 [3] (read-out: Enzyme IC50 IDO1), the half-maximal inhibitory concentration (IC50) is 2300 nM.

In the case of `OC(c1c(C2CC2)ccc2cncn12)C1CCC(c2ccc(F)cc2F)CC1` (centres unmarked) [Example D127, (6-cyclopropylimidazo[1,5-a]pyridin-5-yl)(4-(2,4-difluorophenyl)cyclohexyl)methanol], the values for the EC50 (on IDO1 [1]; in assay [2]) were 170 nM and above 10000 nM, respectively. Also, the IC50 on IDO1 [3] (read-out: Enzyme IC50 IDO1) turned out to be 40 nM.

Regarding `O[C@@H](c1c(C2CC2)ccc2cncn12)[C@H]1CC[C@H](c2cccc(F)c2)CC1` (single isomer, unassigned) [Example D156b], the 50% effective concentration (EC50) at IDO1 [1] was 6990 nM; in assay [2] it was above 10000 nM. The half-maximal inhibitory concentration (IC50) at IDO1 [3] (read-out: Enzyme IC50 IDO1) is above 10000 nM.

As for `COCCOc1ccc(C2CCC(C(O)c3c(C4CC4)ccn4cncc34)CC2)cc1` (racemic) [Example C103, (7-cyclopropylimidazo[1,5-a]pyridin-8-yl)(4-(4-(2-methoxyethoxy)phenyl)cyclohexyl)methanol], the 50% effective concentration (EC50) at IDO1 [1] was 95 nM; in assay [2] it was above 10000 nM. Besides, the IC50 at IDO1 [3] (read-out: Enzyme IC50 IDO1) turned out to be 62 nM.

`OC(c1c(C2CC2)ccn2cncc12)C1CCC(c2ccc(Cl)cc2)CC1` (racemic) [Example C102, (4-(4-chlorophenyl)cyclohexyl)(7-cyclopropylimidazo[1,5-a]pyridin-8-yl)methanol]: the figures for the half-maximal effective concentration (EC50) (at IDO1 [1]; in assay [2]) were 261 nM and above 10000 nM, respectively. Besides, the IC50 on IDO1 [3] (read-out: Enzyme IC50 IDO1) was 100 nM.

Turning to `O[C@@H](c1c(C2CC2)ccc2cncn12)[C@H]1CC[C@H](c2cccc(Cl)c2)CC1` (single isomer, unassigned) [Example D116b], the half-maximal effective concentration (EC50) is 6150 nM on IDO1 [1] and above 10000 nM in assay [2]. The IC50 at IDO1 [3] (read-out: Enzyme IC50 IDO1) came out at 5900 nM.

As to `Cn1cc(-c2ccc(N3CCC(C(O)c4c(C5CC5)ccc5cncn45)CC3)cc2)cn1` (centres unmarked) [Example D176, (6-cyclopropylimidazo[1,5-a]pyridin-5-yl)(1-(4-(1-methyl-1H-pyrazol-4-yl)phenyl)piperidin-4-yl)methanol], the EC50 at IDO1 [1] was 109 nM; in assay [2] it was above 10000 nM. The IC50 at IDO1 [3] (read-out: Enzyme IC50 IDO1) turned out to be 25 nM.

In the case of `O[C@@H](c1c(C2CC2)ccc2cncn12)[C@H]1CC[C@H](c2ccc(Br)cc2)CC1` (single isomer, unassigned) [Example D118b], the EC50 at IDO1 [1] is 8410 nM; in assay [2] it was above 10000 nM. Also, the IC50 at IDO1 [3] (read-out: Enzyme IC50 IDO1) is above 10000 nM.

`OC(c1c(C2CC2)ccn2cncc12)C1CCC(c2ccc(OC3CCCC3)cc2)CC1` (centres unmarked) [Example C118, (4-(4-(cyclopentyloxy)phenyl)cyclohexyl)(7-cyclopropylimidazo[1,5-a]pyridin-8-yl)methanol]: the EC50 on IDO1 [1] is 259 nM; in assay [2], above 10000 nM. The IC50 on IDO1 [3] (read-out: Enzyme IC50 IDO1) came to 120 nM.

Consider `OC(c1c(C2CC2)ccc2cncn12)C1CCN(c2ccc(F)c3ncccc23)CC1` (centres unmarked) [Example D175, (6-cyclopropylimidazo[1,5-a]pyridin-5-yl)(1-(8-fluoroquinolin-5-yl)piperidin-4-yl)methanol], for which the EC50 was 21 nM at IDO1 [1] and above 10000 nM in assay [2]. Besides, on IDO1 [3] (read-out: Enzyme IC50 IDO1), the half-maximal inhibitory concentration (IC50) was 22 nM.

Regarding `O[C@@H](c1c(C2CC2)ccc2cncn12)[C@H]1CC[C@H](c2ccc(Cl)c(F)c2)CC1` (single isomer, unassigned) [Example D128b], the EC50 at IDO1 [1] is 8570 nM; in assay [2] it was above 10000 nM. Also, the 50% inhibitory concentration (IC50) on IDO1 [3] (read-out: Enzyme IC50 IDO1) is above 10000 nM.

Consider `O[C@H](c1c(C2CC2)ccc2cncn12)[C@H]1CC[C@H](c2ccc(F)c(Cl)c2)CC1` (single isomer, unassigned) [Example D129a], for which the EC50 was 56 nM at IDO1 [1] and above 10000 nM in assay [2]. In addition, the half-inhibitory concentration (IC50) at IDO1 [3] (read-out: Enzyme IC50 IDO1) stood at 21 nM.

With `OC(c1c(C2CC2)ccn2cncc12)C1CCC(c2cccc(Cl)c2)CC1` (centres unmarked) [Example C133, (4-(3-chlorophenyl)cyclohexyl)(7-cyclopropylimidazo[1,5-a]pyridin-8-yl)methanol], the concentration for a half-maximal effect (EC50) at IDO1 [1] is 256 nM; in assay [2], above 10000 nM. At IDO1 [3] (read-out: Enzyme IC50 IDO1), the IC50 turned out to be 88 nM.

As for `OC(c1c(C2CC2)ccn2cncc12)C1CCC(c2ccc(C(F)(F)F)nc2)CC1` (centres unmarked) [Example C120, (7-cyclopropylimidazo[1,5-a]pyridin-8-yl)(4-(6-(trifluoromethyl)pyridin-3-yl)cyclohexyl)methanol], the figures for the EC50 (on IDO1 [1]; in assay [2]) were 2180 nM and above 10000 nM, respectively. For the same compound, on IDO1 [3] (read-out: Enzyme IC50 IDO1), the half-inhibitory concentration (IC50) was 96 nM.

On to `CC(C)c1ccc2cncn2c1[C@@H](O)[C@H]1CC[C@H](c2cccc(Cl)c2)CC1` (single isomer, unassigned) [Example D168a], for which the figures for the EC50 (on IDO1 [1]; in assay [2]) were 25 nM and above 10000 nM, respectively. Also, the IC50 at IDO1 [3] (read-out: Enzyme IC50 IDO1) is 17 nM.

Consider `OC(c1c(C2CC2)ccn2cncc12)C1CCC(c2ccc(OC3COC3)cc2)CC1` (centres unmarked) [Example C117, (7-cyclopropylimidazo[1,5-a]pyridin-8-yl)(4-(4-(oxetan-3-yloxy)phenyl)cyclohexyl)methanol], for which the concentration for a half-maximal effect (EC50) at IDO1 [1] was 184 nM; in assay [2], above 10000 nM. The concentration for half-maximal inhibition (IC50) on IDO1 [3] (read-out: Enzyme IC50 IDO1) came out at 35 nM.

For the compound `COc1ccc([C@H]2CC[C@H]([C@@H](O)c3c(C4CC4)ccc4cncn34)CC2)cc1` (single isomer, unassigned) [Example D102b], the EC50 at IDO1 [1] is 6770 nM; in assay [2] it was above 10000 nM. At IDO1 [3] (heading: Enzyme IC50 IDO1), this compound showed a concentration for half-maximal inhibition (IC50) above 10000 nM.

With `OC(c1c(C2CC2)ccc2cncn12)[C@H]1CC[C@H](c2ccc(Cl)cc2)CC1` (single isomer, unassigned) [Example D103b], the EC50 is 6880 nM on IDO1 [1] and above 10000 nM in assay [2]. In addition, on IDO1 [3] (read-out: Enzyme IC50 IDO1), the IC50 is 7800 nM.

For `COc1cccc(C2CCC(C(O)c3c(C4CC4)ccc4cncn34)CC2)c1` (centres unmarked) [Example D143, (6-cyclopropylimidazo[1,5-a]pyridin-5-yl)(4-(3-methoxyphenyl)cyclohexyl)methanol], the concentration giving a half-maximal response (EC50) is 62 nM on IDO1 [1] and above 10000 nM in assay [2]. The 50% inhibitory concentration (IC50) at IDO1 [3] (read-out: Enzyme IC50 IDO1) is 33 nM.

Take `COc1ccc(C2CCC(C(O)c3c(C4CC4)ccc4cncn34)CC2)c2ccccc12` (centres unmarked) [Example D139, (6-cyclopropylimidazo[1,5-a]pyridin-5-yl)(4-(4-methoxynaphthalen-1-yl)cyclohexyl)methanol]: the EC50 on IDO1 [1] was 977 nM; in assay [2], above 10000 nM. Also, the 50% inhibitory concentration (IC50) on IDO1 [3] (read-out: Enzyme IC50 IDO1) was 75 nM.

Regarding `CC(C)c1ccc2cncn2c1[C@H](O)[C@H]1CC[C@H](c2cccc(F)c2)CC1` (single isomer, unassigned) [Example D167b], the concentration for a half-maximal effect (EC50) was 2790 nM on IDO1 [1] and above 10000 nM in assay [2]. The IC50 at IDO1 [3] (read-out: Enzyme IC50 IDO1) stood at 9800 nM.

As for `O[C@H](c1c(C2CC2)ccc2cncn12)C1CCN(c2ccccc2)CC1` (single isomer, unassigned) [Example D170a], the EC50 at IDO1 [1] was 22 nM; in assay [2], above 10000 nM.

In the case of `OC(c1c(C2CC2)ccn2cncc12)C1CCC(c2ccc(F)c(F)c2)CC1` (centres unmarked) [Example C131, (7-cyclopropylimidazo[1,5-a]pyridin-8-yl)(4-(3,4-difluorophenyl)cyclohexyl)methanol], the 50% effective concentration (EC50) in assay [2] was above 10000 nM. At IDO1 [3] (read-out: Enzyme IC50 IDO1), the IC50 came to 110 nM.

Regarding `OC(c1c(C2CC2)ccc2cncn12)[C@H]1CC[C@H](c2cccc(F)c2F)CC1` (single isomer, unassigned) [Example D132b], the EC50 on IDO1 [1] is above 10000 nM. Moreover, on IDO1 [3] (read-out: Enzyme IC50 IDO1), the IC50 is 7500 nM.

As for `O[C@H](c1c(C2CC2)ccc2cncn12)C1CCN(c2ccc(Cl)c3ncccc23)CC1` (single isomer, unassigned) [Example D178a], the EC50 is 9.7 nM at IDO1 [1] and above 10000 nM in assay [2].
